Molecules are shown by their SMILES.

The values that follow come from paper PMC11537999, “Identification of human pregnane X receptor antagonists utilizing a high-throughput screening platform” (Frontiers in Pharmacology, 2024).

The subject of data set [1] is CYP3A4 mRNA expression. Description: CYP3A4 mRNA expression by qRT-PCR in HepaRG cells treated with compound alone. In kind it is cell-based, human. Particulars: 24 h, compound at its IC70 concentration, vs DMSO. Here is the method:
(§1) Fully differentiated NoSpin™ HepaRG™ cells (Lonza, Walkersville, Maryland) were seeded into 12-well collagen-coated plates (Corning) at a density of 8 × 10^5 cells/well using Williams’ E medium (ThermoFisher) supplemented with HepaRG™ thawing and plating medium supplement (Lonza), 25 U/mL penicillin, and 25 μg/mL streptomycin (Invitrogen). The cells were then placed into a 37°C and 5% CO2 incubator for 3 days including a media change before treatment. Cells were then treated with the vehicle control (final concentration of 0.1% DMSO), the positive controls, or test compounds for 24 h before harvesting.
(§2) Total RNA was extracted from the cell lysate using an RNeasy Mini kit (Qiagen) according to the manufacturer’s instructions. RNA was reverse transcribed to cDNA using a High-Capacity RNA-to-cDNA kit (Applied Biosystems). CYP3A4 and CYP2B6 mRNA expression were both measured and normalized to the glyceraldehyde-3-phosphate dehydrogenase (GAPDH) housekeeping gene. Real-time PCR was completed using a QuantStudio Real-Time PCR system (Applied Biosystems) with TaqMan probes (CYP3A4 Assay ID: Hs00604506_m1, CYP2B6 Assay ID: Hs04183483_g1, GAPDH Assay ID: Hs99999905_m1, ThermoFisher Scientific, Waltham, MA). Following amplification, induction values were calculated using the equation: Fold = 2^−ΔΔCt, where ΔCt represents the difference in number of cycles required to reach the Ct threshold between CYP3A4 or CYP2B6 and GAPDH, and ΔΔCt represents the relative change in these differences between the control (DMSO) and treatment groups. Experimental data are expressed as a mean of triplicate values ±SD. Statistical analysis was performed using one-way analysis of variance with post hoc Dunnett’s analysis. The statistical significance values were set at p < 0.05 (*), p < 0.01 (**), and p < 0.001 (***).
To overcome the previous screening limitations, we used this more physiologically relevant cell line, HepaRG cells, to run follow-up studies with the PXR antagonists identified from the primary screen which used immortalized cell lines without a metabolic component. Using HepaRG cells, the 20 potential PXR antagonists were treated for 24 h and harvested for mRNA (Supplementary Figure S1).
FIGURE 3 HepaRG cells were treated with the top 20 most promising PXR antagonists identified from the high-throughput screen. […] The concentrations for the test compounds were the IC70 values from the original NPACT screen. Real-time PCR was used to analyze the mRNA expression of CYP3A4. Each bar represents the mean ± SD in triplicate. *, p < 0.05; **, p < 0.01.

In data set [2] the test system is CYP3A4 mRNA expression. Description: Co-treatment pharmacological assay: CYP3A4 mRNA by qRT-PCR in HepaRG cells co-treated with rifampicin. In kind it is cell-based, human. Conditions: for inhibition of CYP3A4 mRNA expression under rifampicin co-treatment (in words): IC50, IC70 or IC90 concentration + 5 μM rifampicin. The protocol:
as §1, §2
As previously mentioned, HepG2 cells are not metabolically competent and therefore use of HepaRG cells or human primary hepatocytes is a better choice to confirm PXR antagonists. […]
On the technique in general: In qPCR the cycle at which signal appears reflects the starting amount.

Consider `COc1cc(-c2cn(C3CCc4c(F)cccc4N(CC(F)(F)F)C3=O)nn2)ccc1-n1cnc(C)c1` (centres unmarked) [GSM2], for which the “inhibition of CYP3A4 mRNA expression (in words)” value in data set [1] was “significantly inhibited CYP3A4 mRNA expression”. In data set [2] (15 μM compound + 5 μM rifampicin, DMSO = 1), the “CYP3A4 mRNA expression, average level” value is 0.6 fold. In addition, the “inhibition of CYP3A4 mRNA expression under rifampicin co-treatment (in words)” value in data set [2] is given as “clear concentration dependent inhibition of CYP3A4 mRNA expression”.
As for `CC(=O)O[C@H]1C[C@@]2(C)[C@@H](C[C@@H](O)[C@H]3[C@@]4(C)CC[C@@H](O)[C@@H](C)[C@@H]4CC[C@@]32C)/C1=C(\CCC=C(C)C)C(=O)O` [fusidic acid], the “inhibition of CYP3A4 mRNA expression (in words)” value in data set [1] is “significantly inhibited CYP3A4 mRNA expression”. The “inhibition of CYP3A4 mRNA expression under rifampicin co-treatment (in words)” value in data set [2] was “clear concentration dependent inhibition of CYP3A4 mRNA expression”.
